One test deals with Cisplatin-Induced Emesis. In words: Antagonism of Cisplatin-Induced Emesis in the Ferret. The class given is in vivo, Fitch ferrets. The following applies: Mustela putorius, iv, 4 h, i.v. × 2, read-out: Antagonism of Cisplatin-Induced Emesis in the Ferret, % Protection. The text has this: The ventral and dorsal area of the neck is shaved and a 3 cm incision is made. The left jugular vein is exposed and ligated with a silk suture at the cephalic end. The indwelling catheter is constructed of Silastic tubing 18 cm in length (0.020 inch I.D.×0.037 inch O.D.) with a 2 cm polyethylene sleeve (0.045 inch I.D.×0.062 inch O.D.) filled with heparin (1000 units/ml) and sealed at the exposed end with a 23 gauge×1 inch needle crimped at both ends. A small cut is made in the jugular and the catheter inserted, allowing the free end to be delivered through a 13 gauge×5 cm trochar under the skin and attached to the nape of the neck with a silk suture. The ferrets are housed in individual cages and allowed 2-4 days recovery before testing. On the test day, the test compounds were administered i.v. […] The cisplatin solution was prepared by adding 70° C. physiological saline, stirring and sonicating until dissolved. The resulting solution (4 mg/ml) was maintained at 40° C. and administered i.v. ([…]) via the catheter. Following administration of cisplatin, the ferrets were observed continuously for four hours and emetic episodes recorded. Two or more emetic episodes within a one-minutes period was considered as a single episode. The ferrets were euthanized with T-61 i.v. at the termination of the experiment, and proper placement of the catheter was verified.

Test [1] deals with dopaminergic (D2) receptors (Rattus norvegicus, UniProt P61169). Nature of the test: biochemical. The class given is binding. The conditions noted are these: striatal rat brain homogenates, ^3H-spiperone, 37° C., 15 minutes; read-out: 3H-Spiperone Displacement IC50. How it is done: Rats (150±10 g; Charles River) were decapitated, the corpus striatum dissected out and frozen on dry ice. The tissues were pooled and stored at -80° C. until used. Homogenates (Brinkmann Polytron) of the corpus striatum in cold HEPES.KOH buffer (final pH=7.4) were centrifuged at 39,000×G. The supernatant was discarded and the pellets were re-suspended in HEPES.KOH buffer and re-centrifuged as above.
Sequence of dopaminergic (D2) receptors (P61169 whole entry): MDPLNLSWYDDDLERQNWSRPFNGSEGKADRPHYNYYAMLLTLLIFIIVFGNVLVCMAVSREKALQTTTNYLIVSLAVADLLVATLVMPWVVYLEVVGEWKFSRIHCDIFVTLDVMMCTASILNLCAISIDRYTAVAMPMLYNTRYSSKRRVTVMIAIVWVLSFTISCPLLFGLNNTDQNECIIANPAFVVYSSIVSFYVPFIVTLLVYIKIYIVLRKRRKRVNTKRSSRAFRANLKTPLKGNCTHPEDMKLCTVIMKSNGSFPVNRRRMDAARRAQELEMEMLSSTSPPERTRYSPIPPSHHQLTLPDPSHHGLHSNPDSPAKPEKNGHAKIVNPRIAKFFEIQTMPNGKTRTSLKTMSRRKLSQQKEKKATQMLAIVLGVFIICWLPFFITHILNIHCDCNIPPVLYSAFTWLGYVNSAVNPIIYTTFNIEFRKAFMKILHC
Tests to determine the Inhibitory Concentration50 (IC50) of the compounds of Formula I and reference compounds versus ^3 H-spiperone were conducted as follows. Tubes containing either 100 μL of buffer mixture (for total binding), 100 μL of buffer mixture plus 100 μL of 10^-4 M D(+)-butaclamol (for blanks, i.e. non-specific binding), or 100 μL of buffer mixture containing 10^-7, 10^-6 or 10^-5 M test compound were prepared. To each were added 100 μL of a solution of ^3 H-spiperone (New England Nuclear) in buffer mixture (2000 c.p.m. in the incubation mixture) and 800 μL of the striatal tissue suspension. The tubes were then diluted to 1 mL with buffer mixture, giving a final concentration of 10^-8, 10^-7 or 10^-6 M test compound and approximately 100 pM ^3 H-spiperone. The samples were incubated at 37° C. for 15 minutes, filtered in vacuo on glass fiber filters and counted by liquid scintillation spectrometry. […] All samples were run in duplicate.

For test [2], the system named is field-stimulated guinea pig ileum. In words: Gastrokinetic Activity: contraction of field-stimulated guinea pig ileum preparations. Details: species or system guinea pig (Hartley). The conditions noted are these: Cavia porcellus; for activation at 30 µM / activation at 10 µM: read-out: Average % Maximum Increase; for EC30: effective concentration30, read-out: EC30 (95% C.L.); for EC50: effective concentration50, read-out: EC50 (95% C.L.); for minimal effective concentration: read-out: Minimum Effective Concentration. How it is done: This activity is considered to be correlated with gastrokinetic (prokinetic) activity in vivo, i.e. enhancement of gastric motility and gastric emptying.
Normal, male guinea pigs (Hartley; Charles River) weighing […] are sacrificed by cervical dislocation. The terminal portion of the ileum was removed after discarding a 10 cm segment nearest to the ileocecal junction. The strips, 3-4 cm in length, were mounted in a 20 ml organ bath containing Krebs physiological buffer solution. The buffer was bubbled with 95% O2 -5% CO2 and kept at 37° C. The resting tension was adjusted to 1.0 g, and the tissues were equilibrated without stimulation for 15 minutes. For electrical stimulation, a platinum wire (cathode) was threaded up through the lumen and another platinum wire (anode) was attached to the glass rod that suspended the muscle. Tissues were stimulated coaxially at 1.5 times the voltage necessary to produce maximum twitch height, with single pulses, 0.5 msec in duration, delivered once every 10 seconds. After the 15 minute equilibration period (without stimulation), the stimulator (Grass S88 Stimulator) was turned on and the tissues were allowed to stabilize for approximately 1 hour, or until the twitch height remained constant, with washes every 20 minutes.

The test system of test [3] is Apomorphine-Induced Emesis. Nature of the test: Antagonism of Apomorphine-Induced Emesis in Dogs. The class given is in vivo, beagle dogs. The conditions noted are these: Canis lupus familiaris, sc; s.c. 30 minutes prior to apomorphine 0.3 mg/kg; dog; read-out: Antagonism of Apomorphine-Induced Emesis in the Dog ED50. The protocol:
Unfasted beagle dogs of both sexes were used as test subjects. Test compounds and apomorphine were each administered subcutaneously as aqueous solutions, with the test compound being administered 30 minutes prior to the administration of the apormorphine.
Apomorphine was administered at a dose of 0.3 mg/kg. […] All tests were run in at least two dogs.

The values that follow come from patent publication US4820715A, “Anti-emetic quinuclidinyl benzamides” (Bristol-Myers Company, priority 1987, dated 1989).

For the compound `CCN(CC)CCNC(=O)c1cc(Cl)c(N)cc1OCCC[S+](C)[O-]` (stereo not shown) [Example 50, 4-Amino-5-chloro-N-[2-(diethylamino)ethyl]-2-[3-(methylsulfinyl)propoxy]benzamide], the inhibition in vivo at 3 mg/kg in the test with Cisplatin-Induced Emesis amounted to 62%. In addition, the IC50 in test [1] was > 1 µM. Besides, in test [2], the activation at 30 µM stood at 45%, the 30% effect concentration (EC30) was 12 µM, the EC50 was found to be 39 µM and the minimal effective concentration came to 1 µM. Besides, the ED50 in test [3] was > 3 mg/kg.

For `CCN(CC)CCNC(=O)c1cc(Cl)c(N)cc1OCC(=O)N1CCCC1` [Example 59, 4-Amino-5-chloro-N-[2-(diethylamino)ethyl]-2-[2-(1-pyrrolidinyl)-2-oxoethoxy]benzamide], in the test on Cisplatin-Induced Emesis, the inhibition in vivo at 3 mg/kg worked out at 66%. In addition, the IC50 in test [1] is > 1 µM. Also, in test [2], the activation at 10 µM amounted to 38%, the EC30 worked out at 5.2 µM, the EC50 amounted to 20 µM and the minimal effective concentration came out at 1 µM. For the same compound, the ED50 in test [3] was > 3 mg/kg.

As to `CCN(CC)CCNC(=O)c1cc(Cl)c(N)cc1OCCCC[S+](C)[O-]` (stereo not shown) [Example 58], in the test with Cisplatin-Induced Emesis, the inhibition in vivo at 3 mg/kg amounted to 66%. Further, the IC50 in test [1] is > 1 µM. In test [2], the activation at 30 µM amounted to 72%, the EC30 was found to be 1.5 µM, the EC50 came to 5.6 µM and the minimal effective concentration stood at 0.3 µM. Further, in test [3], the ED50 is > 3 mg/kg.

As to `CCN(CC)CCNC(=O)c1cc(Cl)c(N)cc1OCCNC(C)=O` [Example 48], the inhibition in vivo at 3 mg/kg in the test with Cisplatin-Induced Emesis was 47%. The IC50 in test [1] was > 1 µM. In test [2], the activation at 10 µM was found to be 47%, the EC30 was determined as 2.3 µM, the EC50 was determined as 13 µM and the minimal effective concentration turned out to be 0.1 µM. In test [3], the ED50 was > 3 mg/kg.

As for `CCN(CC)CCNC(=O)c1cc(Cl)c(N)cc1OCCSC` [Example 20, 4-Amino-5-chloro-N-[2-(diethylamino)ethyl]-2-[2-(methylthio)ethoxy]benzamide], the inhibition in vivo at 3 mg/kg with Cisplatin-Induced Emesis was 50%. In test [1], the IC50 was > 1 µM. Further, the ED50 in test [3] is > 3 mg/kg.

As to `C=CCN1CCCC1CNC(=O)c1cc2[nH]nnc2cc1OC` (stereo not shown) [Alizapride, reference compound], the inhibition in vivo at 3 mg/kg with Cisplatin-Induced Emesis turned out to be 27%. Further, the IC50 in test [1] worked out at 0.29 µM. Besides, in test [3], the ED50 is 0.3 mg/kg.

On to `CCN(CC)CCNC(=O)c1cc(Cl)c(N)cc1OC(C)C(C)=NO` (stereo not shown) [Example 34, 4-Amino-5-chloro-N-[2-(diethylamino)ethyl]-2-(2-hydroxyiminobut-3-yl)oxybenzamide], for which, in the test on Cisplatin-Induced Emesis (1 mg/kg), the inhibition in vivo at 1 mg/kg is 54%. In test [1], the IC50 was > 1 µM. Moreover, the ED50 in test [3] is > 3 mg/kg.

On to `CCN(CC)CCNC(=O)c1cc(Cl)c(N)cc1OCCCN1C(=O)c2ccccc2C1=O` [Example 38, 4-Amino-5-chloro-N-[2-(diethylamino)ethyl]-2-[3-(phthalimido)propoxy]benzamide], for which the inhibition in vivo at 3 mg/kg with Cisplatin-Induced Emesis was 57%. In addition, the IC50 in test [1] was > 1 µM. Moreover, in test [3], the ED50 is > 3 mg/kg.

For `CCOC(=O)C=C(COc1cc(N)c(Cl)cc1C(=O)NCCN(CC)CC)OC` [Example 42, 4-Amino-5-chloro-N-[2-(diethylamino)ethyl]-2-(ethyl-3-methoxycroton-4-yl)oxybenzamide], the inhibition in vivo at 3 mg/kg in the test on Cisplatin-Induced Emesis was 95%. Further, the IC50 in test [1] was > 1 µM. Besides, in test [3], the ED50 was > 3 mg/kg.

Regarding `CCN(CC)CCNC(=O)c1cc(Cl)c(N)cc1OCCCl` [Example 53, 4-Amino-5-chloro-2-(2-chloroethoxy)-N-[2-(2-diethylamino)ethyl]benzamide], in the test with Cisplatin-Induced Emesis, the inhibition in vivo at 3 mg/kg came to 91%. For the same compound, the IC50 in test [1] was > 1 µM. In test [3], the ED50 was > 3 mg/kg.

For the compound `CCN(CC)CCNC(=O)c1cc(Cl)c(N)cc1OCCCSC` [Example 49, 4-Amino-5-chloro-N-[2-(diethylamino)ethyl]-2-[3-(methylthio)propoxy]benzamide], the inhibition in vivo at 3 mg/kg in the test on Cisplatin-Induced Emesis came to 62%. Moreover, in test [1], the IC50 is > 1 µM. Besides, the ED50 in test [3] is > 3 mg/kg.

Broadly, the IC50 is the midpoint of a concentration-inhibition curve. For orientation: EC30 means the concentration at which the effect reaches the 30% level. One may read the EC50 as the concentration that produces a half-maximal response. As a reminder, the ED50 is the dose that gives a 50% effect, or the effect in half of the subjects.
